Results on 17 molecules are retold here after US20260356835A1, “BICYCLIC HETEROARYL COMPOUNDS” (QuantX Biosciences US, Inc., priority 2023, published 2026).

Each structure is given as a SMILES string.

Test [1] has as its target T1, N-his8-TEV-hPARG (389-976) (Homo sapiens, UniProt Q86W56).
T1 construct: N-his8-TEV-hPARG (389-976); His8 (N); TEV protease cleavage site (N); made in house; host or cells: E. coli BL21(DE3)
The test is described as follows: PARG Biochemical Enzymatic Assay (PARG inhibition HTRF assay). Particulars: 62.5 pM PARG, 5 nM Biotin-Parylated PARP1 substrate, 60 minutes preincubation, 10 minutes reaction at 23 °C. As to the method:
PARG Biochemical Enzymatic Assay
TEV-His8-PolyADP-Ribose Polymerase 1 (379-1014) (PARP1) and N-his8-TEV-hPARG (389-976) were used to transform BL21(DE3) competent cells followed by growth for 1 hour at 37 °C and plating on Kanamycin resistant agar plates. A single colony was then inoculated into 1 ml of Luria Broth and expansion into a 1 liter scale for growth at 37 °C for 3 hours. Expression was induced via 0.2 mM IPTG induction for 20 hours at 16 °C in BL21(DE3) E. coli. Purification was then performed using a Nickel column, size exclusion chromatography and HPLC analysis.
For substrate preparation, […] nicked DNA and 2 μM PARP1 protein were mixed for 10 minutes at 25 °C 10 μM biotin-NAD+ and 100 μM NAD+ were then added and incubated for 60 minutes at 30 °C to yield PARylated PARP1 substrate.
For compound screening, compounds were serially diluted to a 3× final concentration in assay buffer (Tris pH7.5 50 mM, KCl 50 mM, Tween-20 0.01%, BSA 0.1 mg/ml, EDTA 3 mM, EGTA 0.4 mM, DTT 1 mM) containing 1% DMSO. A top concentration of 1.5 μM for a 10-point dose response curve using a 1:3 dilution curve was used. 2.5×PARG (156.25 pM working concentration, 62.5 pM final concentration) was prepared in assay buffer and 4 ul added to a 384 well assay plate containing 2 μl of serially diluted compound. The plate was then centrifuged for 10 seconds and incubated for 60 minutes at 23 °C. 4 μl of 2.5× Biotin-Parylated PARP1 (12.5 nM working concentration, 5 nM final concentration) was then added to the plate and incubated for 10 minutes at 23 °C. 4 μl of […] Detection reagent containing 0.44 μg/ml of Streptavidin-Europium cryptate and 4 μg/ml of anti-6His-XL665 monoclonal antibody was added to the plate and incubated for 60 minutes at 23 °C. The Homogeneous Time Resolved Fluorescent (HTRF) signal was then measured on an Envision plate reader using and excitation wavelength of 337 nm and emission wavelengths of 615 nm and 665 nm. Normalized percent inhibition was then calculated using the following equation: % Inhibition normalized=(compound signal-min signal)/(max signal-min signal)*100%, where Maximum signal was substrate only wells and Minimum signal was enzyme and substrate well. IC50 was calculated by fitting % Inhibition values and log of compound concentrations to nonlinear regression (log(inhibitor) vs. response—Variable slope(four parameters)) with GraphPad 9.4.1
For biochemical activity, bracket is denoted as: A<100 nM; 100 nM<B<500 nM; C>500 nM
(In TR-FRET formats the signal depends on donor and acceptor labels being close together.)

The next test deals with Kuramochi cells. The test is described as follows: Cellular Viability Assay (5 day Kuramochi cell viability, CellTiter-Glo). In kind it is cell-based. Particulars: 5 days, 37 °C, growth inhibition relative to Day 0 (T0) and DMSO. As to the method:
Kuramochi cells were seeded at a density of 1000 cells per well in a 384-well, white, sterile, clear bottom plate, using a Multidrop liquid dispenser and incubated for 24 hours at 37 °C in a 5% CO2 humidified environment. 24 hours later, compounds were added starting at a top dose of 10 μM for a 9-point dose response curve at a 1:3 dilution using an iDOT HT liquid handler and incubated for 5 days at 37 °C in a 5% CO2 humidified environment. After 5 days and at Day 0, plates were incubated at room temperature for 30 minutes followed by the addition of 30 μl of CellTiter-Glo Reagent. Plates were then mixed for 10 minutes on an orbital shaker followed by incubation at room temperature for 20 minutes. Luminescence was then read using the Envision plate reader. Percent Growth Inhibition was then calculated using the following equation: Percent Growth Inhibition normalized=100−(compound signal−T0)/(max signal−T0)*100%, where Max Signal refers to the DMSO only treated cells and T0 refers to the Day0 viability measurement. Growth Inhibition 50 was then calculated using the following equation: Y=Bottom+(Top−Bottom)/(1+10^((Log IC50−X)*hillslope)).
For cell activity, bracket is denoted as: A<1 uM; 1 uM<B<5 uM; C>5 uM.
Background: Cellular ATP, detected with luciferase, serves as a proxy for viable cell number.

T1 sequence (Q86W56 389-976): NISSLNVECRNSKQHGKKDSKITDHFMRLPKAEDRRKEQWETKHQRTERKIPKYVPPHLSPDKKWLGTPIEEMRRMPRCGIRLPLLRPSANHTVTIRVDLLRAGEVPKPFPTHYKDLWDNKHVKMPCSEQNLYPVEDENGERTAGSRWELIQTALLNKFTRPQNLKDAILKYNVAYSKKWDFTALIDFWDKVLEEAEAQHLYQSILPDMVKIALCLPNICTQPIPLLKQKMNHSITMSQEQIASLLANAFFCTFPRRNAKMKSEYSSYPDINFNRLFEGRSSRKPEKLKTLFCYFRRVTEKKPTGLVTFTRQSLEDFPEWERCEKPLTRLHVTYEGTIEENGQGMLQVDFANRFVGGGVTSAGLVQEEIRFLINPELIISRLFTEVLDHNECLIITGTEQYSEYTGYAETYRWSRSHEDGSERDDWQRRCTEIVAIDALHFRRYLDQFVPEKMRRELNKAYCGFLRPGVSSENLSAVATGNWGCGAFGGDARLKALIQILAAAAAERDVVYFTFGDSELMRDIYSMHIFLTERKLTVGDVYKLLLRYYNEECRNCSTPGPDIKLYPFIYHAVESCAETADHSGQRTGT

Broadly, the IC50 is the midpoint of a concentration-inhibition curve. Read a low IC50 as greater potency in that assay. `O=S(=O)(NC1(C(F)(F)F)CC1)c1cc(N2CCC3(CC2)COC3)n2ncc(-c3nnc(C(F)F)s3)c2c1` [Example 13, 3-[5-(difluoromethyl)-1,3,4-thiadiazol-2-yl]-7-(2-oxa-7-azaspiro[3.5]nonan-7-yl)-N-[1-(trifluoromethyl)cyclopropyl]pyrazolo[1,5-a]pyridine-5-sulfonamide]: the values for the IC50 (in test [1]; in the test with Kuramochi cells) were 100 to 500 nM and 1000 to 5000 nM, respectively.

In the case of `CC1(NS(=O)(=O)c2cc(N3CCC4(CC3)COC4)n3ncc(-c4nnc(C(F)(F)F)s4)c3c2)CC1` [Example 14, N-(1-methylcyclopropyl)-7-(2-oxa-7-azaspiro[3.5]nonan-7-yl)-3-(5-(trifluoromethyl)-1,3,4-thiadiazol-2-yl)pyrazolo[1,5-a]pyridine-5-sulfonamide], the IC50 in test [1] is less than 100 nM; in the test on Kuramochi cells it was less than 1000 nM.

Consider `CC1(NS(=O)(=O)c2cc(N3CCC4(CC3)COC4)n3ncc(-c4nc(C(F)F)cs4)c3c2)CC1` [Example 15, 3-(4-(difluoromethyl)thiazol-2-yl)-N-(1-methylcyclopropyl)-7-(2-oxa-7-azaspiro[3.5]nonan-7-yl)pyrazolo[1,5-a]pyridine-5-sulfonamide], for which the IC50 in test [1] is less than 100 nM; with Kuramochi cells it was less than 1000 nM.

Turning to `Cn1ccnc1N1CCN(c2cc(S(=O)(=O)NC3(C#N)CC3)cc3c(-c4nnc(C(F)F)s4)cnn23)CC1` [Example 16, N-(1-cyanocyclopropyl)-3-(5-(difluoromethyl)-1,3,4-thiadiazol-2-yl)-7-(4-(1-methyl-1H-imidazol-2-yl)piperazin-1-yl)pyrazolo[1,5-a]pyridine-5-sulfonamide], the figures for the half-inhibitory concentration (IC50) (in test [1]; in the test with Kuramochi cells) were less than 100 nM and 1000 to 5000 nM, respectively.

As for `CC(C)OC(=O)N1CCN(c2cc(S(=O)(=O)NC3(C#N)CC3)cc3c(-c4nnc(C(F)F)s4)cnn23)CC1` [Example 17, Isopropyl 4-(5-(N-(1-cyanocyclopropyl)sulfamoyl)-3-(5-(difluoromethyl)-1,3,4-thiadiazol-2-yl)pyrazolo[1,5-a]pyridin-7-yl)piperazine-1-carboxylate], the 50% inhibitory concentration (IC50) in test [1] is less than 100 nM; in the test with Kuramochi cells, less than 1000 nM.

For the molecule `CCCS(=O)(=O)N1CCN(c2cc(S(=O)(=O)NC3(C#N)CC3)cc3c(-c4nnc(C(F)F)s4)cnn23)CC1` [Example 18, N-(1-cyanocyclopropyl)-3-(5-(difluoromethyl)-1,3,4-thiadiazol-2-yl)-7-(4-(propylsulfonyl)piperazin-1-yl)pyrazolo[1,5-a]pyridine-5-sulfonamide], the results for the half-maximal inhibitory concentration (IC50) (in test [1]; in the test with Kuramochi cells) were less than 100 nM and less than 1000 nM, respectively.

Consider `CC1(C(=O)N2CCN(c3cc(S(=O)(=O)NC4(C#N)CC4)cc4c(-c5nnc(C(F)F)s5)cnn34)CC2)CCC1` [Example 19, N-(1-cyanocyclopropyl)-3-[5-(difluoromethyl)-1,3,4-thiadiazol-2-yl]-7-[4-(1-methylcyclobutanecarbonyl)piperazin-1-yl]pyrazolo[1,5-a]pyridine-5-sulfonamide], for which the half-maximal inhibitory concentration (IC50) in test [1] was less than 100 nM; with Kuramochi cells it was less than 1000 nM.

Turning to `Cc1nnc(N2CCN(c3cc(S(=O)(=O)NC4(C#N)CC4)cc4c(-c5nnc(C(F)F)s5)cnn34)CC2)s1` [Example 20, N-(1-cyanocyclopropyl)-3-[5-(difluoromethyl)-1,3,4-thiadiazol-2-yl]-7-[4-(5-methyl-1,3,4-thiadiazol-2-yl)piperazin-1-yl]pyrazolo[1,5-a]pyridine-5-sulfonamide], the half-maximal inhibitory concentration (IC50) is less than 100 nM in test [1] and less than 1000 nM in the test on Kuramochi cells.

As for `CC1(NS(=O)(=O)c2cc(N3CCC4(CC3)COC4)n3ncc(-c4nc5ncccc5s4)c3c2)CC1` [Example 21, N-(1-methylcyclopropyl)-7-(2-oxa-7-azaspiro[3.5]nonan-7-yl)-3-(thiazolo[4,5-b]pyridin-2-yl)pyrazolo[1,5-a]pyridine-5-sulfonamide], the concentration for half-maximal inhibition (IC50) in test [1] is less than 100 nM; in the test with Kuramochi cells, less than 1000 nM.

`N#CC1(NS(=O)(=O)c2cc(N3CCN(C(=O)N4CC[C@H](F)C4)CC3)n3ncc(-c4nnc(C(F)F)s4)c3c2)CC1` [Example 22, (S)-N-(1-cyanocyclopropyl)-3-(5-(difluoromethyl)-1,3,4-thiadiazol-2-yl)-7-(4-(3-fluoropyrrolidine-1-carbonyl)piperazin-1-yl)pyrazolo[1,5-a]pyridine-5-sulfonamide]: the concentration for half-maximal inhibition (IC50) in test [1] is less than 100 nM; with Kuramochi cells it was less than 1000 nM.

Consider `N#CC1(c2nnc(-c3cnn4c(N5CCC6(CC5)COC6)cc(S(=O)(=O)NC5(C(F)F)CC5)cc34)s2)CC1` [Example 23, 3-[5-(1-cyanocyclopropyl)-1,3,4-thiadiazol-2-yl]-N-[1-(difluoromethyl)cyclopropyl]-7-(2-oxa-7-azaspiro[3.5]nonan-7-yl)pyrazolo[1,5-a]pyridine-5-sulfonamide], for which the 50% inhibitory concentration (IC50) in test [1] is less than 100 nM; in the test with Kuramochi cells, less than 1000 nM.

For the molecule `Cc1nnc(N2CCN(c3cc(S(=O)(=O)NC4(C#N)CC4)cc4c(-c5nnc(C(F)F)s5)cnn34)CC2)o1` [Example 24, N-(1-cyanocyclopropyl)-3-[5-(difluoromethyl)-1,3,4-thiadiazol-2-yl]-7-[4-(5-methyl-1,3,4-oxadiazol-2-yl)piperazin-1-yl]pyrazolo[1,5-a]pyridine-5-sulfonamide], the figures for the IC50 (in test [1]; in the test on Kuramochi cells) were less than 100 nM and less than 1000 nM, respectively.

For `C#CC1(NS(=O)(=O)c2cc(N3CCN(C(=O)N4CC[C@H](O)C4)CC3)c3cnn(-c4nnc(C(F)F)s4)c3c2)CC1` [Example 26, 1-[5-(difluoromethyl)-1,3,4-thiadiazol-2-yl]-N-(1-ethynylcyclopropyl)-4-[4-[(3S)-3-hydroxypyrrolidine-1-carbonyl]piperazin-1-yl]indazole-6-sulfonamide], the IC50 in test [1] is less than 100 nM; in the test with Kuramochi cells it was less than 1000 nM.

On to `CC(=O)N1CCN(c2cc(S(=O)(=O)NC3(C)CC3)cc3c2cnn3-c2nc3c(s2)C(=O)COC3)CC1` [Example 28, 4-(4-acetylpiperazin-1-yl)-N-(1-methylcyclopropyl)-1-(7-oxo-6,7-dihydro-4H-pyrano[3,4-d]thiazol-2-yl)-1H-indazole-6-sulfonamide], for which the half-inhibitory concentration (IC50) in test [1] was 100 to 500 nM; in the test on Kuramochi cells, more than 5000 nM.

As for `CC1(NS(=O)(=O)c2cc(-n3cc(C4(O)CCC4)cn3)c3cnn(-c4nnc(C5(O)CCC5)s4)c3c2)CC1` [Example 31, 4-[4-(1-hydroxycyclobutyl)pyrazol-1-yl]-1-[5-(1-hydroxycyclobutyl)-1,3,4-thiadiazol-2-yl]-N-(1-methylcyclopropyl)indazole-6-sulfonamide], the values for the concentration for half-maximal inhibition (IC50) (in test [1]; in the test on Kuramochi cells) were 100 to 500 nM and 1000 to 5000 nM, respectively.

Turning to `N#CC1(c2nnc(-n3ncc4c(N5CCC6(CC5)COC6)cc(S(=O)(=O)NC5(C(F)F)CC5)cc43)s2)CC1` [Example 32, 1-(5-(1-cyanocyclopropyl)-1,3,4-thiadiazol-2-yl)-N-(1-(difluoromethyl)cyclopropyl)-4-(2-oxa-7-azaspiro[3.5]nonan-7-yl)-1H-indazole-6-sulfonamide], the IC50 in test [1] was less than 100 nM; in the test with Kuramochi cells it was less than 1000 nM.

As for `CC1(NS(=O)(=O)c2cc(-n3cc(C4(C#N)CC4)cn3)c3cnn(-c4nnc(C5(O)CCC5)s4)c3c2)CC1` [Example 33, 4-(4-(1-cyanocyclopropyl)-1H-pyrazol-1-yl)-1-(5-(1-hydroxycyclobutyl)-1,3,4-thiadiazol-2-yl)-N-(1-methylcyclopropyl)-1H-indazole-6-sulfonamide], the IC50 in test [1] was 100 to 500 nM; in the test with Kuramochi cells it was 1000 to 5000 nM.
